“Also recorded” adds a separate entry of the source.
Experiments:
Assay type in all cases: cell-based, human
HT-29 cells [1] = experiment: Cell viability / growth of HT-29 cells
Description: (§1) Two human-derived CaP cell lines were used, i.e. the androgen-responsive cell line LNCaP, and the androgen-unresponsive cell line DU145 as well as the colorectal adenocarcinoma HT-29 cell line. The three cell lines were purchased from American Type Culture Collection (ATCC, Rockville, Md.). The LNCaP cells were maintained in RPMI 1640 medium supplemented with 10% fetal bovine serum (FBS), 1% penicillin/streptomycin and 1% glutamine (complete medium). The DU145 cells were maintained in Dulbecco modified Eagle's minimal essential medium (DMEM) supplemented with 10% FBS and 1% penicillin/streptomycin (complete medium). The HT-29 cells were maintained in DMEM supplemented with 10% FBS, 1% penicillin/streptomycin and 1% glutamine. […]
(§2) Cell viability was determined by using the CellTiter-Blue® assay (Promega, Charbonnières, France). Cell apoptosis was quantified by evaluating the enzymatic activities of Caspase 3/7 by using the Apo-ONE® Homogeneous Caspase-3/7 Assay (promega). Briefly, the enzymes were measured in intact and differentiated DU145 culture cells after a 3-days incubation with OxA or OxB (10^-6M) in 96-well plates. The cells were incubated with fluorogenic peptide specific to caspase 3 and 7 enzymes, and detection of fluorescent product over time was monitored in a spectrofluorometer Flex Station 3 (Molecular Devices, St. Grégoire, France) at 485 nm excitation and 527 nm emission. […]

DU145 cells [2] = experiment: CellTiter-Blue cell viability / growth of DU145 cells; conditions: native DU145 cells, 10^-6 M, 3 days
Description: as §1, §2

DU145 cells [3] = experiment: Apo-ONE Homogeneous Caspase-3/7 apoptosis assay in DU145 cells (native or neuroendocrine-differentiated); conditions: 10^-6 M, 3 days
Description: as §1, §2

HT-29 cells [4] = experiment: Apo-ONE Homogeneous Caspase-3/7 apoptosis assay in HT-29 cells (positive control); conditions: 10^-6 M

Substance: Orexin-B [OxB]
- cell growth (HT-29 cells [1]): inhibited cell growth
- cell growth (DU145 cells [2]): increased cell growth
- apoptosis (Caspase 3/7 activity) (DU145 cells [3]; DU145 cells submitted to neuroendocrine differentiation (db-cAMP 1 mM/IBMX 0.1 mM)): promote cell death
- apoptosis (Caspase 3/7 activity) (DU145 cells [3]; native DU145 cells): did not alter apoptosis; also recorded: has no effect on the apoptosis rate
- apoptosis (Caspase 3/7 activity) (HT-29 cells [4]): promoted significantly the apoptosis

From US20170319661A1, “Methods and Pharmaceutical Compositions Using Orexins (OXA, OXB) for the Treatment of Prostate Cancers” (INSERM (Institut National de la Sante et de la Recherche …, priority 2014, published 2017)
